From patent publication US4743584A, “C-terminal amide cyclic renin inhibitors containing peptide isosteres” (Merck & Co., Inc., priority 1986, dated 1988)
Positions of bridges follow the written chain, without caps; N, C: chain ends. Residues, ends and D or L forms follow the SMILES beside them. *: point of attachment. Boc = CC(C)(C)OC(=O)*

Tests used:
[1] = target: T1, human kidney renin (Homo sapiens, UniProt P00797); assay: Human renin inhibition; assay type: biochemical; conditions: purified human kidney renin; read-out: KI (dissociation constant of the inhibited enzyme-inhibitor complex)
T1 construct: human kidney renin purified as described in Bangham; from tissue; host or cells: human kidney
T1 sequence (P00797 67-406): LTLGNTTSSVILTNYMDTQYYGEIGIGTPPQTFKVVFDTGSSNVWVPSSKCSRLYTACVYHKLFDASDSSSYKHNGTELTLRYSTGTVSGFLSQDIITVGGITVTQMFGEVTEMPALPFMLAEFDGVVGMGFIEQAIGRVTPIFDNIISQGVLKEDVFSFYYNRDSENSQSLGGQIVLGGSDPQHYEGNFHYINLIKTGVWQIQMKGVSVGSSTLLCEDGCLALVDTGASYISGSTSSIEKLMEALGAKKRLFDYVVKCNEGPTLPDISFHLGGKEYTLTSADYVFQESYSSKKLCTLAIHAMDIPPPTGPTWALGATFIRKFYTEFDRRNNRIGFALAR
Method: An assay was carried out in order to determine the inhibitory potency of the peptides of the present invention. The assay measured the inhibition of human kidney renin purified as described in Bangham, D. R., Robertson, I., Robinson, J. I. S., Robinson, C. J., and Tree, M., Clinical Science and Molecular Medicine, 48 (Supp. 2): 136s-159s (1975), and further purified by affinity chromatography on pepstatin-aminohexyl-Sepharase as described in Poe, M., Wu., J. K., Florance, J. R., Radkey, J. A., Bennett, C. D., and Hoagsteen, K., J. Biol. Chem. (1982, in press). The assay was also in accordance with Poe et al. cited above. Results are expressed as KI values, which refer to the dissociation constant of the inhibited enzyme-inhibitor complex. This KI value was obtained as described above. […]

[2] = system: hog kidney renin; assay: Hog renin inhibition; assay type: biochemical; conditions: pH 7.3, read-out: I50 (concentration of peptide inhibitor necessary to produce 50% inhibition of renin activity)
Method: An assay was carried out in order to determine the inhibitory potency of the peptides of the present invention. The assay measured the inhibition of hog kidney renin, and was in accordance with the procedure described in Rich et al., J. Med. Chem. 23:27, 1980, except that a pH of 7.3 was used. The results of the assay, illustrated in the table below, are expressed as I50 values, which refers to the concentration of peptide inhibitor necessary to produce 50% inhibition of renin activity. This I50 value is obtained typically by plotting data from four inhibitor concentrations.

[3] = system: nephrectomized rats; conditions: after the injection of hog renin into nephrectomized rats; Gross et al. 1971; cited from earlier work

Row | Ki [1] | Molecule | other results
1 | 33 µM | CC(C)[C@@H]1NC(=O)[C@H](Cc2ccccc2)NC(=O)[C@H](Cc2ccccc2)NC(=O)[C@@H](NC(=O)[C@H](Cc2ccccc2)NC(=O)[C@@H]2CCCN2C(=O)[C@H](Cc2c[nH]cn2)NC(=O)[C@@H]2CCCN2)CCCCNC(=O)[C@H](Cc2ccccc2)NC1=O (H-PHPFKFFVF; lactam 5-C) | 
2 | 6.4 µM | CC(C)C[C@@H]1NC(=O)[C@@H](NC(=O)[C@H](Cc2ccccc2)NC(=O)[C@@H]2CCCN2C(=O)[C@H](Cc2c[nH]cn2)NC(=O)[C@@H]2CCCN2C(=O)OC(C)(C)C)CCCCNC(=O)[C@H](Cc2ccccc2)NC(=O)[C@H](C(C)C)NC(=O)[C@H](CC(C)C)NC1=O [drawing 69] (Boc-PHPFKLLVF; lactam 5-C) | 
3 |  | CC(C)C[C@@H]1NC(=O)[C@@H](NC(=O)[C@H](Cc2ccccc2)NC(=O)[C@@H]2CCCN2C(=O)[C@H](Cc2c[nH]cn2)NC(=O)[C@@H]2CCCN2C(=O)OC(C)(C)C)CCCCNC(=O)[C@H](Cc2ccccc2)NC(=O)[C@H](C(C)C)NC(=O)[C@H](CC(C)C)NC1=O [drawing 67] (Boc-PHPFKLLVF; lactam 5-C) | IC50 [2]: 1 mM
4 |  | Pepstatin | blood pressure in vivo [3]: reduce blood pressure
